In one experiment the target is Mitogen-activated protein kinase kinase kinase 5 (Homo sapiens) (UniProt Q99683). The experiment is described as follows: ligand-induced stabilization of human MAP3K5 kinase – biophysical, DSF, SYPRO orange, recombinant protein (AID 515). Particulars: recombinant MAP3K5, DSF thermal shift, at 10 µM, buffer 10 mM HEPES, pH 7.5, NaCl 150 mM, hits give high values.
Sequence of Mitogen-activated protein kinase kinase kinase 5 (Homo sapiens) (Q99683 whole entry, looked up): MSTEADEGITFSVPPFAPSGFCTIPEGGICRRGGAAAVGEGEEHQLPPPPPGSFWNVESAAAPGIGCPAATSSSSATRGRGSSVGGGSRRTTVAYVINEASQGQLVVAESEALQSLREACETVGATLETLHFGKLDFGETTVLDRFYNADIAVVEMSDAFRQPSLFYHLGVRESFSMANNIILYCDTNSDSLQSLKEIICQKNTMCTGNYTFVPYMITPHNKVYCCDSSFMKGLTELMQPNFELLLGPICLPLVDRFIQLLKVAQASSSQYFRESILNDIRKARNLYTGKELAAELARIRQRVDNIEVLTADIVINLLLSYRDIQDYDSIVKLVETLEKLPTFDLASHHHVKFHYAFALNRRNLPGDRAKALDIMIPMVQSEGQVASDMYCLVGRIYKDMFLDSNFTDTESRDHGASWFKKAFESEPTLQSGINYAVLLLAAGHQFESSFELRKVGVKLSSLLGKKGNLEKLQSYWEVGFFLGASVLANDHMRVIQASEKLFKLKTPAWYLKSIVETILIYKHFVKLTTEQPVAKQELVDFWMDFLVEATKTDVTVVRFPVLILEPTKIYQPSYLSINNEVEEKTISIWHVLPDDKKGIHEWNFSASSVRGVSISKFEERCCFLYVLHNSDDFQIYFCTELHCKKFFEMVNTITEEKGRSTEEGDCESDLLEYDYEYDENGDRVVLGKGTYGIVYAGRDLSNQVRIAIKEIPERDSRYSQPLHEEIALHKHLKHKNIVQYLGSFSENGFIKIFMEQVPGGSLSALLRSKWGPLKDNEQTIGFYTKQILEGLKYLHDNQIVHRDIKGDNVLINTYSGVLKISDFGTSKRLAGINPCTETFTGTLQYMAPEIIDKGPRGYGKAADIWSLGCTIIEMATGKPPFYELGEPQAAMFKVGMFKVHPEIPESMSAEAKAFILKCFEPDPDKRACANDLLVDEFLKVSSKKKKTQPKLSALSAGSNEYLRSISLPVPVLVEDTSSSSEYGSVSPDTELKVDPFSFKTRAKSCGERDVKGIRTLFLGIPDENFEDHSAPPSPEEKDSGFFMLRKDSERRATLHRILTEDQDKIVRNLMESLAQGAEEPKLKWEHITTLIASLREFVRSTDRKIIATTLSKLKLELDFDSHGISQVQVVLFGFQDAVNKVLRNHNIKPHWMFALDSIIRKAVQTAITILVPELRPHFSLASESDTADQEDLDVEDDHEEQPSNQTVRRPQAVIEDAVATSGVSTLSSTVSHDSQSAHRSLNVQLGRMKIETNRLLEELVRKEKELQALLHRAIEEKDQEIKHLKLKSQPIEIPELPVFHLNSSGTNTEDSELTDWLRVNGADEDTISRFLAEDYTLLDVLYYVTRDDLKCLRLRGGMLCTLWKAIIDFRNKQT
For the compound `O=Nc1c(-c2c(O)[nH]c3ccccc23)[nH]c2ccccc12`, the Tm shift is 6.1 Celsius.

For `O=Nc1c(-c2c(O)[nH]c3ccc(S(O)(O)O)cc23)[nH]c2ccccc12`, the Tm shift is 4.04 Celsius.

`CCOc1c(Br)ccc2c1sc1nc[nH]c(=O)c12`: the Tm shift is 3.9 Celsius.

Regarding `O=c1[nH]cnc2scc(-c3cccs3)c12`, the Tm shift was 3.7 Celsius.

For the compound `O=C(Nc1ccc(N2CCOCC2)cc1)Nc1ccc(Cl)c(Cl)c1`, the Tm shift was 5.7 Celsius.

Consider `NC1=N/C(=C2/CCNC(=O)c3[nH]c(Br)cc32)C(=O)N1`, for which the Tm shift was 8.7 Celsius.

As for `O=Nc1c(-c2c(O)[nH]c3ccc(I)cc23)[nH]c2ccccc12`, the Tm shift was 5.72 Celsius.

Turning to `N#Cc1ccc(-c2cnc3ccc(NC4CCOCC4)nn23)cc1`, the Tm shift was 3.5 Celsius.

On to `Cc1c2ccncc2c(C)c2c1[nH]c1ccccc12`, for which the Tm shift is 6.3 Celsius.

For the compound `Cc1ccc2c(c1)=C(c1[nH]c(=S)[nH]c1O)C(=O)N=2`, the Tm shift was 4.5 Celsius.

As for `OCC(O)CCO/N=C1/C(c2c(O)[nH]c3ccccc23)=Nc2ccccc21` (stereo not drawn), the Tm shift was 5.6 Celsius.

Take `Nc1nc(Nc2ccc(S(N)(=O)=O)cc2)nn1C(=S)Nc1c(F)cccc1F`: the Tm shift is 16.9 Celsius.

In the case of `O=C(c1ccc(Nc2nccc(-c3cc4ccccc4s3)n2)cc1)N1CCC(N2CCCC2)CC1`, the Tm shift was 5.1 Celsius.

In the case of `Cn1cc(/C=C2\C(=O)Nc3ccc(S(N)(=O)=O)cc32)c2ccccc21`, the Tm shift is 10 Celsius.

As for `COc1cccc(N=Cc2c(O)[nH]c3ccccc23)c1`, the Tm shift was 3.2 Celsius.

In the case of `O=C1Nc2ccccc2/C1=C\c1cnc[nH]1`, the Tm shift is 4.76 Celsius.

For the compound `CC1N=C2SC=CN2C(=O)C1CCN1CCC(=C(c2ccccc2)c2ccc(F)cc2)CC1` (stereo not drawn), the Tm shift was 4.8 Celsius.

On to `O=c1c(O)c(-c2ccc(O)c(O)c2)oc2cc(O)cc(O)c12`, for which the Tm shift was 3.7 Celsius.

The experiment is the same for the next values; noted with them: recombinant MAP3K5, DSF thermal shift, at 10 µM, buffer 10 mM HEPES, pH 7.5, NaCl 150 mM, with 50 µM L-Arg/L-Glu (1:1), hits give high values.
Take `CC(C)(C)c1nc2c3cc[nH]c(=O)c3c3cc(F)ccc3c2[nH]1`: the Tm shift was 8.26 Celsius.

For the compound `O=C1NCc2c1c1c3ccccc3[nH]c1c1[nH]c3ccccc3c21`, the Tm shift was 8.53 Celsius.

Turning to `O=Nc1c(-c2c(O)[nH]c3cc(Br)ccc23)[nH]c2ccccc12`, the Tm shift is 8.7 Celsius.

In the case of `CC(O)(O)C1(O)C[C@@H]2O[C@@]1(C)n1c3ccccc3c3c4c(c5c6ccccc6n2c5c31)C(=O)NC4` (stereo partly drawn), the Tm shift was 14.1 Celsius.

Take `COc1ccc2c(c1)/C(=C/c1cnc[nH]1)C(=O)N2`: the Tm shift is 5.19 Celsius.

As to `O=C1c2ccccc2-c2n[nH]c3cccc1c23`, the Tm shift was 8.63 Celsius.

Regarding `O=C1NC(=O)c2c1c1c3ccccc3n3c1c1c2c2ccccc2n1[C@@H]1CCC3O1`, the Tm shift is 6.97 Celsius.

As for `O=C1Nc2ccccc2/C1=C/c1ccc[nH]1`, the Tm shift was 5.01 Celsius.

In the case of `NC1=N/C(=C2/CCNC(=O)c3[nH]c(Br)cc32)C(=O)N1`, the Tm shift was 12.5 Celsius.

With `Cc1cc(C=C2C(=O)C=CC2=O)cc(C)c1O`, the Tm shift was 3.1 Celsius.

As for `O=c1c(O)c(-c2ccc(O)c(O)c2)oc2cc(O)ccc12`, the Tm shift is 3.96 Celsius.

For `CCN(CC)CCNC(=O)c1c(C)[nH]c(/C=C2\C(=O)Nc3ccc(Cl)cc32)c1C`, the Tm shift was 6.43 Celsius.

In the case of `NC(=O)Nc1sc(-c2ccccc2)cc1C(N)=O`, the Tm shift is 5.94 Celsius.

As for `CC1N=C2SC=CN2C(=O)C1CCN1CCC(=C(c2ccccc2)c2ccc(F)cc2)CC1` (stereo not drawn), the Tm shift was 6.07 Celsius.

In the case of `NC1=N/C(=C2\CCNC(=O)c3[nH]ccc32)C(=O)N1`, the Tm shift is 4.65 Celsius.

For the origin of these results see PubChem BioAssay AID515 (SGCOxCompounds, 2006).
